Active and inactive are the calls of the source. The rule behind the calls is not given here.
Columns and labels:
[1] = tested on: MCF7; test: Induction of late apoptosis in human MCF7 cells assessed as increase in rate of formation of pycnotic nuclei at 10 uM by Hoechst 33342 and PI staining based fluorescence microscopic analysis; format: functional, cell-based; conditions: TDE = time-dependent effect
[2] = tested on: MDA-MB-231; test: Induction of apoptosis in human MDA-MB-231 cells assessed as cleaved pro-caspase 3 level at 10 uM incubated for 24 hrs by Western blot analysis (reference value: 1); format: functional
[3] = tested on: MDA-MB-231; test: Induction of cell death in human MDA-MB-231 cells assessed as upregulation of BECN1 gene at 10 uM incubated for 48 hrs by RT-PCR analysis; format: functional, cell-based
[4] = tested on: MCF7; test: Induction of cell death in human MCF7 cells assessed as downregulation of PARP gene at 10 uM incubated for 48 hrs by RT-PCR analysis; format: functional, cell-based
[5] = tested on: MDA-MB-231; test: Cytotoxicity against human MDA-MB-231 cells assessed as reduction in cell viability incubated for 24 hrs by ATP based luminometry; format: functional; conditions: MDA-MB-231, 24 h
[6] = tested on: MCF7; test: Induction of cell death in human MCF7 cells assessed as downregulation of RIPK gene at 10 uM incubated for 48 hrs by RT-PCR analysis; format: functional, cell-based
[7] = Induction of caspase 3/7 activity in human MCF7 cells assessed as induction of apoptosis by measuring late apoptotic cells at 10 uM incubated for 24 hrs by flow cytometry analysis (reference value: 22.90 %); format: functional
[8] = Induction of caspase 3/7 activity in human MDA-MB-231 cells assessed as induction of apoptosis by measuring early apoptotic cells at 10 uM incubated for 24 hrs by flow cytometry analysis (reference value: 0.35 %); format: functional
[9] = tested on: MCF7; test: Induction of cell death in human MCF7 cells assessed as upregulation of TNFRSF10B gene at 10 uM incubated for 24 hrs by RT-PCR analysis; format: functional, cell-based
[10] = tested on: MDA-MB-231; test: Induction of cell death in human MDA-MB-231 cells assessed as downregulation of PARP gene at 10 uM measured after 48 hrs by RT-PCR analysis; format: functional, cell-based
[11] = tested on: MCF7; test: Induction of apoptosis in human MCF7 cells assessed as late apoptotic cells at 10 uM incubated for 24 hrs by annexin V-FITC and PI staining based flow cytometry analysis (reference value: 14.60 %); format: functional
[12] = Induction of caspase 3/7 activity in human MCF7 cells assessed as induction of apoptosis by measuring early apoptotic cells at 10 uM incubated for 24 hrs by flow cytometry analysis (reference value: 0.70 %); format: functional
[13] = tested on: MCF7; test: Induction of cell death in human MCF7 cells assessed as downregulation of RIPK gene at 10 uM measured after 48 hrs by RT-PCR analysis; format: functional, cell-based
[14] = tested on: MCF7; test: Induction of cell death in human MCF7 cells assessed as downregulation of PARP gene at 10 uM measured after 48 hrs by RT-PCR analysis; format: functional, cell-based
[15] = tested on: MDA-MB-231; test: Induction of cell death in human MDA-MB-231 cells assessed as downregulation of RIPK gene at 10 uM measured after 48 hrs by RT-PCR analysis; format: functional, cell-based
[16] = tested on: MCF7; test: Induction of endoplasmic reticulum stress in human MCF7 cells assessed as BIP expression at 10 uM incubated for 24 hrs by Western blot analysis (reference value: 1); format: functional
[17] = tested on: MDA-MB-231; test: Induction of apoptosis in human MDA-MB-231 cells assessed as pro-caspase 8 level at 10 uM incubated for 24 hrs by Western blot analysis (reference value: 1); format: functional
[18] = tested on: MCF7; test: Induction of early apoptosis in human MCF7 cells assessed as increase in pycnotic nuclei at 10 uM incubated for 24 hrs by Hoechst 33342 and PI staining based fluorescence microscopic analysis; format: functional, cell-based
[19] = tested on: MCF7; test: Induction of apoptosis in human MCF7 cells assessed as viable cells at 10 uM incubated for 24 hrs by annexin V-FITC and PI staining based flow cytometry analysis (reference value: 69.60 %); format: functional; conditions: read-out: Activity
[20] = tested on: MDA-MB-231; test: Induction of apoptosis in human MDA-MB-231 cells assessed as cleaved PARP level at 10 uM incubated for 24 hrs by Western blot analysis (reference value: 1); format: functional
[21] = Induction of caspase 3/7 activity in human MCF7 cells assessed as induction of apoptosis by measuring viable cells at 10 uM incubated for 24 hrs by flow cytometry analysis (reference value: 73.10 %); format: functional
[22] = Induction of caspase 3/7 activity in human MDA-MB-231 cells assessed as induction of apoptosis by measuring late apoptotic cells at 10 uM incubated for 24 hrs by flow cytometry analysis (reference value: 1.55 %); format: functional
[23] = tested on: MCF7; test: Induction of endoplasmic reticulum stress in human MCF7 cells assessed as CHOP expression at 10 uM incubated for 24 hrs by Western blot analysis (reference value: 1); format: functional
[24] = Induction of caspase 3/7 activity in human MDA-MB-231 cells assessed as induction of apoptosis by measuring viable cells at 10 uM incubated for 24 hrs by flow cytometry analysis (reference value: 97.25 %); format: functional
[25] = tested on: MCF7; test: Induction of cell death in human MCF7 cells assessed as downregulation of MLKL gene at 10 uM incubated for 48 hrs by RT-PCR analysis; format: functional, cell-based
[26] = tested on: MDA-MB-231; test: Induction of apoptosis in human MDA-MB-231 cells assessed as cleaved pro-caspase 8 level at 10 uM incubated for 24 hrs by Western blot analysis (reference value: 1); format: functional
[27] = tested on: MCF7; test: Induction of apoptosis in human MCF7 cells assessed as pro-caspase 3 level at 10 uM incubated for 24 hrs by Western blot analysis (reference value: 1); format: functional
[28] = tested on: MCF7; test: Induction of apoptosis in human MCF7 cells assessed as cleaved PARP level at 10 uM incubated for 24 hrs by Western blot analysis (reference value: 1); format: functional
[29] = tested on: MCF7; test: Induction of apoptosis in human MCF7 cells at 10 uM by annexin V-FITC and PI staining based flow cytometry analysis; format: functional, cell-based; conditions: TDE = time-dependent effect
[30] = tested on: MCF7; test: Induction of ROS production in human MCF7 cells at 10 uM incubated for 24 hrs by flow cytometry analysis; format: functional, cell-based
[31] = tested on: MDA-MB-231; test: Induction of late apoptosis in human MDA-MB-231 cells assessed as increase in PI […] at 10 uM by Hoechst 33342 and PI staining based fluorescence microscopic analysis; format: functional, cell-based; conditions: TDE = time-dependent effect

In the case of COC(=O)[C@@]1(C)CC[C@]2(C)CC[C@]3(C)[C@H](C(=O)C=C4[C@@]5(C)C=C(C#N)C(=O)C(C)(C)[C@@H]5CC[C@]43C)[C@@H]2C1, the Activity [1] is reported as “Tde”, the “fold change (FC)” value [2] is reported as 12.7 and the Activity [3] is reported as “Active”. For the same molecule, the Activity [4] was “Active”, the IC50 [5] was 6.83 µM and the Activity [6] was “Active”. For the same molecule, the Activity [7] was 24.55%, the Activity [8] was 12.75% and the Activity [9] was “Active”. For the same molecule, the Activity [10] was “inactive”, the Activity [11] was 18.35% and the Activity [12] was 0.55%. For the same molecule, the Activity [13] was “inactive”, the Activity [14] was “inactive” and the Activity [15] was “inactive”. For the same molecule, the “fold change (FC)” value [16] was 0.8, the “fold change (FC)” value [17] was 2.1 and the Activity [18] was “Active”. For the same molecule, the viability at 10 µM [19] was 70.7%, the “fold change (FC)” value [20] was 6.3 and the Activity [21] was 60.2%. The Activity [22] was 76.4%, the “fold change (FC)” value [23] was 0.3 and the Activity [24] was 10.35%. For the same molecule, the Activity [25] was “Active”, the “fold change (FC)” value [26] was 2.4 and the “fold change (FC)” value [27] was 1.7. For the same molecule, the “fold change (FC)” value [28] was 4.5, the Activity [29] was “Tde” and the Activity [30] was “inactive”. For the same molecule, the Activity [31] was “Tde”.

From ChEMBL document CHEMBL4680330, “Soloxolone methyl, as a 18βH-glycyrrhetinic acid derivate, may result in endoplasmic reticulum stress to induce apoptosis in breast cancer cells” (Bioorg Med Chem, 2021)
